# Assay results taken from ChEMBL document CHEMBL1136194, “Discovery and evaluation of 3-(5-thien-3-ylpyridin-3-yl)-1H-indoles as a novel class of KDR kinase inhibitors” (Bioorg Med Chem Lett, 2003).
# Key:
# [1] = Partition coefficient (logP); type: physicochemical; details: octanol/water
# [2] = Solubility was determined; type: physicochemical
# [3] = Solubility at pH 7.4 was determined; type: physicochemical; details: buffer
# [4] = Solubility at pH 5.2 was determined; type: physicochemical; details: buffer
# [5] = Pharmacokinetic property (Vdss) for the compound (5 mg/kg iv) was determined in rats; type: ADME, organism-based; details: rat, in vivo, read-out: Vdss
# [6] = Oral bioavailability in rat (dose 20 mg/kg p.o.); type: ADME, organism-based; details: in vivo
# [7] = Pharmacokinetic property (t1/2) for the compound ([…] mg/kg iv) was determined in rats; type: ADME, organism-based; details: rat, in vivo, 5 mg/kg
# [8] = Pharmacokinetic property (Clearance) for the compound (5 mg/kg iv) was determined in rats; type: ADME, organism-based; details: rat, in vivo
logP [1],solubility [2] [µg/mL],solubility [3] [µg/mL],solubility [4] [µg/mL],Vd [5] [L/kg],bioavailability [6] [%],half-life [7] [min],clearance [8] [mL/min/kg],Compound
> 4.1,< 5,,,,,,,CC(=O)Nc1oc(-c2cc3ccccc3cc2O)nc1-c1ccccc1
3.3,,5,24,7.2,35,114,65,c1ccc2c(c1)c(-c1cncc(-c3ccsc3)c1)cn2CCN1CCOCC1
,,< 5,177,1.8,28,96,15,c1ccc2c(c1)c(-c1cncc(-c3ccsc3)c1)cn2CCCN1CCCCC1
3.7,,> 205,18200,1.7,33,108,13,CN1CCN(CCCn2cc(-c3cncc(-c4ccsc4)c3)c3ccccc32)CC1
